Test results reported in publication PMC6038709, “The Drosophila melanogaster Na^+/Ca^2+ Exchanger CALX Controls the Ca^2+ Level in Olfactory Sensory Neurons at Rest and After Odorant Receptor Activation” (Frontiers in Cellular Neuroscience, 2018).

Biological target: T1, Orco (Or83b) (Drosophila melanogaster, UniProt Q9VNB5)
T1 construct: full-length Orco in pcDNA3.1(-), expressed alone (no OrX) in HEK293 cells
T1 sequence (Q9VNB5 1-486): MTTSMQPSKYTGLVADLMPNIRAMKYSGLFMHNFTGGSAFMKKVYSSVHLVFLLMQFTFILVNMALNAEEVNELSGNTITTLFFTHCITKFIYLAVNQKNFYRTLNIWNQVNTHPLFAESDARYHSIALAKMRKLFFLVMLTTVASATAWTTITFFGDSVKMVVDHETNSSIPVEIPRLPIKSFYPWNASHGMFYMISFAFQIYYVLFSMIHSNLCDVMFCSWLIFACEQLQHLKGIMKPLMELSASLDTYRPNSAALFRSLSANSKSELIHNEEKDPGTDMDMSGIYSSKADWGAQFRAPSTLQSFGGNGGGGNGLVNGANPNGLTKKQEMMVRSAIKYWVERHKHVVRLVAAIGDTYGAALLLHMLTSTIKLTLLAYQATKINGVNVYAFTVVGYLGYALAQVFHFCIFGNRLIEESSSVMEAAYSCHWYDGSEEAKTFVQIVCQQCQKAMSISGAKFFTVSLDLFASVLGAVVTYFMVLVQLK
Test: fura-2 calcium imaging, HEK293 cells
Assay type: cell-based
Conditions: block of VUAA1-evoked (100 or 50 uM) calcium rise; KB-R7943 100 uM (Methods); pH 7.4; Orco without OrX

N=C(N)SCCc1ccc(OCc2ccc([N+](=O)[O-])cc2)cc1 [KB-R7943, 2-[4-[(4-nitrophenyl)methoxy]phenyl]ethyl ester carbamimidothiotic acid, monomethanesulfonate]
fura-2 calcium imaging, HEK293 cells: we confirmed that KB-R7943 is blocking Orco
